Experimental data: patent US20180206498A1, “SUBSTITUTED HETEROARYL CARBOXYLIC ACID HYDRAZIDES OR SALTS THEREOF AND USE THEREOF TO INCREASE STRESS TOLERANCE IN PLANTS” (Bayer CropScience Aktiengesellschaft, priority 2015, published 2018)

Columns and labels:
Zea mays = assay: Drought stress in vivo analysis, efficacy EF from visually scored damage intensity; settings: scored after recovery phase
Method: (§1) Seeds of monocotyledonous and dicotyledonous crop plants were sown in sandy loam in wood-fiber or plastic pots, covered with soil or sand and cultivated in a greenhouse under good growth conditions. The trial plants were treated at the early leaf stage (BBCH10-BBCH13). To assure uniform water supply before commencement of stress, the potted plants were supplied with water by dam irrigation prior to substance application. The inventive compounds formulated in the form of wettable powders (WP) were sprayed onto the green parts of the plants as an aqueous suspension at an equivalent water application rate of 600 I/ha with addition of 0.2% wetting agent (e.g. agrotin). Substance application was followed immediately by stress treatment of the plants. For this purpose, the wood-fiber pots were transferred in plastic inserts in order to prevent them from subsequently drying out too quickly. Drought Stress was Induced by Gradual Drying Out Under the Following Conditions: “Day”: 14 hours with illumination at ˜26-30° C. “Night”: 10 hours without illumination at ˜18-20° C. The duration of the respective stress phases was guided mainly by the condition of the stressed control plants. It was ended (by re-irrigating and transfer to a greenhouse with good growth conditions) as soon as irreversible damage was observed on the stressed control plants. The end of the stress phase was followed by an about 4-7-day recovery phase, during which the plants were once again kept under good growth conditions in a greenhouse. The duration of the recovery phase was guided mainly by when the trial plants had attained a state which enabled visual scoring of potential effects, and is therefore variable. Once this juncture was reached, the intensities of damage were scored visually in comparison to untreated, unstressed controls of the same age. The damage intensity was at first assessed in percent. These values were then used to calculate the efficacy of the test compounds by the following formula: [formula] EF: Efficacy DIs: Damage intensity of the stressed control plants DIh: Damage intensity of the stressed plants treated with test compound The values reported in tables A-1 to A-3 below are mean values from at least one trial with at least two repeats. The effects of selected compounds of the general formula (I) under drought stress on various crop plants were measured. BRSNS=Brassica napus ZEAMX=Zea mays TRZAS=Triticum aestivum

Brassica napus [1] = assay: as above; settings: spray 250 g/ha, scored after recovery phase
Method: as §1

Triticum aestivum [2] = assay: as above; settings: scored after recovery phase
Method: as §1

Brassica napus [3] = assay: Drought stress in vivo analysis Part B, appearance vs stressed control plants in categories; parameters: key: 0: no positive effect; +: slight positive effect; ++: clear positive effect; +++: strong positive effect
Method: (§2) Seeds of monocotyledonous and dicotyledonous crop plants were sown in sandy loam in plastic pots, covered with soil or sand and cultivated in a greenhouse under good growth conditions. The test plants are treated at the early leaf stage (BBCH10-BBCH13). To assure uniform water supply before commencement of stress, the potted plants were supplied with water by dam irrigation prior to substance application. The inventive compounds were first formulated as wettable powders (WP) or dissolved in a solvent mixture. The further dilution was effected with water supplemented with 0.2% wetting agent (e.g. agrotin). The finished spray liquor was sprayed onto the green parts of the plant at an equivalent water application rate of 600 I/ha. Substance application was followed immediately by stress treatment of the plants. Drought Stress was Induced by Gradual Drying Out Under the Following Conditions: “Day”: 14 hours with illumination at […]-30° C. “Night”: 10 hours without illumination at 18-20° C. The duration of the respective stress phases was guided mainly by the condition of the stressed control plants. It was ended (by re-irrigating and transfer to a greenhouse with good growth conditions) as soon as irreversible damage was observed on the stressed control plants. The end of the stress phase was followed by an about 4-7-day recovery phase, during which the plants were once again kept under good growth conditions in a greenhouse. The duration of the recovery phase was guided mainly by when the trial plants had attained a state which enabled visual scoring of potential effects, and was therefore variable. Once this juncture had been reached, the appearance of the plants treated with test substances was recorded in comparison to the stressed control plants by the following categories: [table] In order to rule out any influence on the effects observed by any fungicidal or insecticidal action of the test compounds, it was additionally ensured that the tests proceeded without fungal infection or insect infestation. The values reported in tables B-1 and […] below are mean values of the results from at least three repeats. Effects of selected compounds of the general formula (I) under drought stress according to the following tables B-1 and B-2: BRSNS=Brassica napus ZEAMX=Zea mays TRZAS=Triticum aestivum

Triticum aestivum [4] = assay: as above; parameters: key: 0: no positive effect; +: slight positive effect; ++: clear positive effect; +++: strong positive effect
Method: as §2

`COc1cc(OC)nc(CN(C(=O)c2c(C(F)F)nn(C)c2F)N(C)C)n1` [Compound A5-30] was tested, and the “EF [%] (ZEAMX)” value (Zea mays; spray 25 g/ha) was over 5%.
`CN(C)N(Cc1ccccn1)C(=O)c1c(C(F)F)nn(C)c1Cl` [Compound A6-21, 5-Chloro-3-(difluoromethyl) —N′,N′,1-trimethyl-N-(pyridin-2-ylmethyl)-1H-pyrazole-4-carbohydrazide] was tested, and the “EF [%] (BRSNS)” value (Brassica napus [1]) was over 5% and the “EF [%] (ZEAMX)” value (Zea mays; spray 250 g/ha) was over 5%.
`CN(C)N(Cc1ccccc1Cl)C(=O)c1ccsc1` [Compound B2-1] was tested, and the “EF [%] (TRZAS)” value (Triticum aestivum [2]; spray 250 g/ha) was over 5% and the “EF [%] (ZEAMX)” value (Zea mays; spray 25 g/ha) was over 5%.
`CN(C)N(Cc1ccccn1)C(=O)c1ccsc1` [Compound B2-21] was tested, and the “EF [%] (TRZAS)” value (Triticum aestivum [2]; spray 25 g/ha) was over 5% and the “EF [%] (ZEAMX)” value (Zea mays; spray 250 g/ha) was over 5%.
`CN(C)N(Cc1ccccc1C#N)C(=O)c1ccsc1` [Compound B2-61] was tested, and the “EF [%] (BRSNS)” value (Brassica napus [1]) was over 5%, the “EF [%] (TRZAS)” value (Triticum aestivum [2]; spray 20 g/ha) was over 5% and the “EF [%] (ZEAMX)” value (Zea mays; spray 250 g/ha) was over 5%.
With `CN(C)N(Cc1ccccc1C#N)C(=O)c1ccco1` [Compound C1-61] the “EF [%] (ZEAMX)” value (Zea mays; spray 250 g/ha) was over 5%.
In the case of `CC(C)c1nnsc1C(=O)N(Cc1ccccc1C#N)N(C)C` [Compound F2-61, 4-Isopropyl-N′,N′-dimethyl-N-(2-cyanobenzyl)-1,2,3-thiadiazole-5-carbohydrazide], the “Effect (BRSNS)” value (Brassica napus [3]; spray 250 g/ha) is reported as “+” and the “Effect (TRZAS)” value (Triticum aestivum [4]; spray 250 g/ha) is reported as “+”.
In the case of `CN(C)N(Cc1ccccc1Cl)C(=O)c1ccns1` [Compound G8-1], the “Effect (BRSNS)” value (Brassica napus [3]; spray 250 g/ha) is reported as “+” and the “Effect (TRZAS)” value (Triticum aestivum [4]; spray 250 g/ha) is reported as “+”.
With `CN(C)N(Cc1ccc(Cl)nc1)C(=O)c1ccns1` [Compound G8-94] the “Effect (BRSNS)” value (Brassica napus [3]; spray 25 g/ha) was “+” and the “Effect (TRZAS)” value (Triticum aestivum [4]; spray 25 g/ha) was “++”.
In the case of `O=C(c1ccns1)N(Cc1cccc(Cl)c1Cl)N1CCCC1` [Compound G9-4], the “Effect (BRSNS)” value (Brassica napus [3]; spray 250 g/ha) is reported as “++” and the “Effect (TRZAS)” value (Triticum aestivum [4]; spray 25 g/ha) is reported as “++”.
In the case of `O=C(c1ccns1)N(Cc1ccccc1F)N1CCCC1` [Compound G9-11], the “Effect (BRSNS)” value (Brassica napus [3]; spray 250 g/ha) is reported as “+” and the “Effect (TRZAS)” value (Triticum aestivum [4]; spray 250 g/ha) is reported as “+”.
In the case of `O=C(c1ccns1)N(Cc1ncc(C(F)(F)F)cc1Cl)N1CCCC1` [Compound G9-36], the “Effect (BRSNS)” value (Brassica napus [3]; spray 250 g/ha) is reported as “++” and the “Effect (TRZAS)” value (Triticum aestivum [4]; spray 25 g/ha) is reported as “+”.
For `CN(C)N(Cc1ccc(Cl)nc1)C(=O)c1cc(OCc2ccccc2)ns1` [Compound G10-94], the “Effect (BRSNS)” value (Brassica napus [3]; spray 250 g/ha) was “++” and the “Effect (TRZAS)” value (Triticum aestivum [4]; spray 25 g/ha) was “+”.
For `Cc1c(OCc2ccccc2)nsc1C(=O)N(Cc1cccc(Cl)c1Cl)N(C)C` [Compound G11-4], the “Effect (BRSNS)” value (Brassica napus [3]; spray 250 g/ha) was “++” and the “Effect (TRZAS)” value (Triticum aestivum [4]; spray 250 g/ha) was “+”.
With `Cc1c(OCc2ccccc2)nsc1C(=O)N(Cc1ccc(Cl)nc1)N(C)C` [Compound G11-94] the “Effect (BRSNS)” value (Brassica napus [3]; spray 250 g/ha) was “+” and the “Effect (TRZAS)” value (Triticum aestivum [4]; spray 250 g/ha) was “+”.
For `CN(C)N(Cc1ccc(Cl)cc1)C(=O)c1cnsn1` [Compound H1-3], the “Effect (BRSNS)” value (Brassica napus [3]; spray 25 g/ha) was “+” and the “Effect (TRZAS)” value (Triticum aestivum [4]; spray 25 g/ha) was “+”.
In the case of `CN(C)N(Cc1ccccc1F)C(=O)c1cnsn1` [Compound H1-11], the “Effect (BRSNS)” value (Brassica napus [3]; spray 250 g/ha) is reported as “+” and the “Effect (TRZAS)” value (Triticum aestivum [4]; spray 250 g/ha) is reported as “+”.
In the case of `O=C(c1cnsn1)N(Cc1cccc(Cl)c1Cl)N1CCCC1` [Compound H2-4], the “Effect (BRSNS)” value (Brassica napus [3]; spray 250 g/ha) is reported as “+” and the “Effect (TRZAS)” value (Triticum aestivum [4]; spray 250 g/ha) is reported as “+”.
`O=C(c1cnsn1)N(Cc1ccccc1F)N1CCCC1` [Compound H2-11] was tested, and the “Effect (BRSNS)” value (Brassica napus [3]; spray 25 g/ha) was “+” and the “Effect (TRZAS)” value (Triticum aestivum [4]; spray 250 g/ha) was “+”.
`O=C(c1cnsn1)N(Cc1ccc(Cl)nc1)N1CCCC1` [Compound H2-94] was tested, and the “Effect (BRSNS)” value (Brassica napus [3]; spray 250 g/ha) was “+” and the “Effect (TRZAS)” value (Triticum aestivum [4]; spray 250 g/ha) was “+”.
